Experimental data as given in ChEMBL document CHEMBL1201862, “PubChem BioAssay data set” (2004).
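Five concentrations, 48 hours, 96-well plates. GI50 marks 50% less growth.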 Calls of active or inactive are those of the source. No stated cut-off is given here; in the data, active = GI50 up to about 1.1 µM and inactive = higher.

Assays:
Assay in all cases: growth of human tumour cells (NCI), 48 h
A498 = tested on: A498
CCRF-CEM = tested on: CCRF-CEM
COLO 205 = tested on: COLO 205
EKVX = tested on: EKVX
HCC 2998 = tested on: HCC 2998
HT-29 = tested on: HT-29
NCI-H23 = tested on: NCI-H23
NCI-H460 = tested on: NCI-H460
OVCAR-8 = tested on: OVCAR-8
RXF 393 = tested on: RXF 393
SF-268 = tested on: SF-268
SF-539 = tested on: SF-539
SK-MEL-28 = tested on: SK-MEL-28
SN12C = tested on: SN12C
TK-10 = tested on: TK-10
UO-31 = tested on: UO-31
Malme-3M = tested on: Malme-3M

SMILES	GI50 (A498)	GI50 (CCRF-CEM)	GI50 (COLO 205)	GI50 (EKVX)	GI50 (HCC 2998)	GI50 (HT-29)	GI50 (NCI-H23)	GI50 (NCI-H460)	GI50 (OVCAR-8)	GI50 (RXF 393)	GI50 (SF-268)	GI50 (SF-539)	GI50 (SK-MEL-28)	GI50 (SN12C)	GI50 (TK-10)	GI50 (UO-31)	GI50 (Malme-3M)
Cn1c(=O)n(C2(C)C[Se]C2)c2ccccc21	> 100 µM (inactive)	> 100 µM (inactive)	> 100 µM (inactive)	> 100 µM (inactive)	65.3 µM (inactive)	> 100 µM (inactive)	> 100 µM (inactive)	> 100 µM (inactive)	> 100 µM (inactive)	> 100 µM (inactive)	> 100 µM (inactive)	> 100 µM (inactive)	> 100 µM (inactive)	> 100 µM (inactive)	> 100 µM (inactive)	> 100 µM (inactive)	–
CC(C)(C)Sc1nnc(SC(C)(C)C)c2c(SC(C)(C)C)nnc(O)c12	14 µM (inactive)	7.5 µM (inactive)	12.4 µM (inactive)	12.1 µM (inactive)	11.5 µM (inactive)	6.03 µM (inactive)	10.9 µM (inactive)	6.25 µM (inactive)	10 µM (inactive)	3.39 µM (inactive)	7.53 µM (inactive)	10.6 µM (inactive)	–	10.2 µM (inactive)	23.2 µM (inactive)	5.73 µM (inactive)	13.1 µM (inactive)
Cc1cc2oc(-c3ccccc3)c(C)c(=O)c2c2c1OC(C)(C)S2	–	62.8 µM (inactive)	61.2 µM (inactive)	> 100 µM (inactive)	> 100 µM (inactive)	34.2 µM (inactive)	> 100 µM (inactive)	92.7 µM (inactive)	> 100 µM (inactive)	70.3 µM (inactive)	> 100 µM (inactive)	> 100 µM (inactive)	60.7 µM (inactive)	> 100 µM (inactive)	> 100 µM (inactive)	> 100 µM (inactive)	> 100 µM (inactive)
CCOC(=O)C(C(=O)OCC)P(=S)(S)c1ccccc1 (centres undefined)	> 100 µM (inactive)	> 100 µM (inactive)	> 100 µM (inactive)	> 100 µM (inactive)	–	> 100 µM (inactive)	> 100 µM (inactive)	> 100 µM (inactive)	> 100 µM (inactive)	> 100 µM (inactive)	> 100 µM (inactive)	> 100 µM (inactive)	> 100 µM (inactive)	> 100 µM (inactive)	> 100 µM (inactive)	> 100 µM (inactive)	> 100 µM (inactive)
CCCCC(C)/C=C/C(O)=C1\C(=O)O/C(=C\C(=O)O)C1=O (centres undefined)	> 100 µM (inactive)	> 100 µM (inactive)	> 100 µM (inactive)	> 100 µM (inactive)	–	> 100 µM (inactive)	> 100 µM (inactive)	> 100 µM (inactive)	> 100 µM (inactive)	–	–	> 100 µM (inactive)	> 100 µM (inactive)	> 100 µM (inactive)	> 100 µM (inactive)	> 100 µM (inactive)	> 100 µM (inactive)
O=C1OC2C(O)COC2(O)C1(O)Cc1c[nH]c2ccccc12.O=C1OC2C(O)COC2(OCc2c[nH]c3ccccc23)C1O (centres undefined)	> 100 µM (inactive)	> 100 µM (inactive)	> 100 µM (inactive)	> 100 µM (inactive)	–	> 100 µM (inactive)	> 100 µM (inactive)	> 100 µM (inactive)	> 100 µM (inactive)	> 100 µM (inactive)	> 100 µM (inactive)	> 100 µM (inactive)	–	> 100 µM (inactive)	> 100 µM (inactive)	> 100 µM (inactive)	> 100 µM (inactive)
OC12c3ccccc3C1CCCCCCCCCC21OCCO1 (centres undefined)	> 100 µM (inactive)	> 100 µM (inactive)	> 100 µM (inactive)	–	> 100 µM (inactive)	> 100 µM (inactive)	> 100 µM (inactive)	> 100 µM (inactive)	> 100 µM (inactive)	> 100 µM (inactive)	> 100 µM (inactive)	> 100 µM (inactive)	> 100 µM (inactive)	> 100 µM (inactive)	> 100 µM (inactive)	> 100 µM (inactive)	> 100 µM (inactive)
OC1CCC[C@@H]1Sc1ccccc1 (some centres undefined)	> 100 µM (inactive)	> 100 µM (inactive)	> 100 µM (inactive)	> 100 µM (inactive)	> 100 µM (inactive)	–	> 100 µM (inactive)	> 100 µM (inactive)	> 100 µM (inactive)	> 100 µM (inactive)	> 100 µM (inactive)	> 100 µM (inactive)	> 100 µM (inactive)	> 100 µM (inactive)	> 100 µM (inactive)	> 100 µM (inactive)	–
COc1ccc2[nH]c3c(C)c4cc[n+](COC(=O)c5ccccc5)cc4c(C)c3c2c1	1.11 µM (active)	0.0698 µM (active)	–	–	–	0.117 µM (active)	0.428 µM (active)	0.0357 µM (active)	0.0851 µM (active)	–	0.286 µM (active)	0.305 µM (active)	1.31 µM (inactive)	0.197 µM (active)	0.55 µM (active)	1.76 µM (inactive)	1.43 µM (inactive)
COc1ccc(C2COc3c(ccc(O)c3C)C2)cc1OC (centres undefined)	11.2 µM (inactive)	40.7 µM (inactive)	61.7 µM (inactive)	136 µM (inactive)	27.9 µM (inactive)	65.8 µM (inactive)	67.8 µM (inactive)	62.7 µM (inactive)	113 µM (inactive)	24 µM (inactive)	106 µM (inactive)	106 µM (inactive)	121 µM (inactive)	104 µM (inactive)	–	66.1 µM (inactive)	121 µM (inactive)
CC(=O)OC1(C#N)CC2OC1C1C2N=NN1C(=O)OC(C)(C)C (centres undefined)	–	15.2 µM (inactive)	> 100 µM (inactive)	68.2 µM (inactive)	44.5 µM (inactive)	39.4 µM (inactive)	29.6 µM (inactive)	32 µM (inactive)	34.6 µM (inactive)	40.6 µM (inactive)	37.1 µM (inactive)	23.2 µM (inactive)	28.8 µM (inactive)	35.6 µM (inactive)	20.4 µM (inactive)	73.3 µM (inactive)	21.9 µM (inactive)
N#C/C(=C/c1ccc[nH]1)P(=O)(O)O	–	> 100 µM (inactive)	> 100 µM (inactive)	> 100 µM (inactive)	> 100 µM (inactive)	> 100 µM (inactive)	> 100 µM (inactive)	> 100 µM (inactive)	> 100 µM (inactive)	> 100 µM (inactive)	> 100 µM (inactive)	> 100 µM (inactive)	> 100 µM (inactive)	> 100 µM (inactive)	> 100 µM (inactive)	> 100 µM (inactive)	> 100 µM (inactive)
C=C1C(=O)O[C@@H]2OC3(C)CCC4C(C)CCC1C42OO3 (some centres undefined)	3.33 µM (inactive)	1.47 µM (inactive)	3.46 µM (inactive)	11.4 µM (inactive)	13.1 µM (inactive)	2.67 µM (inactive)	5.6 µM (inactive)	2.38 µM (inactive)	3.09 µM (inactive)	–	2.94 µM (inactive)	2.48 µM (inactive)	11.5 µM (inactive)	3.82 µM (inactive)	–	9.84 µM (inactive)	–
CN(C)CCNC(=O)c1cccc2ccc(-c3ccc(Br)cc3)nc12	1.99 µM (inactive)	1.09 µM (active)	0.944 µM (active)	2.61 µM (inactive)	1.85 µM (inactive)	1.61 µM (inactive)	3.47 µM (inactive)	0.767 µM (active)	1.55 µM (inactive)	3.96 µM (inactive)	3.92 µM (inactive)	3.13 µM (inactive)	3.76 µM (inactive)	2.33 µM (inactive)	–	1.76 µM (inactive)	2.55 µM (inactive)
CC(C)(O)[C@H](CCO)O[Si](c1ccccc1)(c1ccccc1)C(C)(C)C	16.5 µM (inactive)	10.6 µM (inactive)	14.4 µM (inactive)	14.2 µM (inactive)	6.01 µM (inactive)	11.1 µM (inactive)	> 10 µM (inactive)	11.2 µM (inactive)	10.9 µM (inactive)	–	10.5 µM (inactive)	14.3 µM (inactive)	15.2 µM (inactive)	4.11 µM (inactive)	13.2 µM (inactive)	11 µM (inactive)	17.1 µM (inactive)
NNc1nnc(-c2ccccc2)nc1Cc1ccccc1	–	2.64 µM (inactive)	7.53 µM (inactive)	22.3 µM (inactive)	3.39 µM (inactive)	8.3 µM (inactive)	6.03 µM (inactive)	4.17 µM (inactive)	4.52 µM (inactive)	5.53 µM (inactive)	3.64 µM (inactive)	4.45 µM (inactive)	7.71 µM (inactive)	5.79 µM (inactive)	9.35 µM (inactive)	3.81 µM (inactive)	3.56 µM (inactive)
CCCN1CN(C(C(=O)N[C@@H]2C(=O)N3C(C(=O)O)=C(C)CSC23)c2ccccc2)CSC1=S (some centres undefined)	> 100 µM (inactive)	95.1 µM (inactive)	47.1 µM (inactive)	> 100 µM (inactive)	–	> 100 µM (inactive)	> 100 µM (inactive)	42.5 µM (inactive)	> 100 µM (inactive)	25.9 µM (inactive)	> 100 µM (inactive)	> 100 µM (inactive)	> 100 µM (inactive)	> 100 µM (inactive)	> 100 µM (inactive)	> 100 µM (inactive)	> 100 µM (inactive)
COC(=O)CCC(NC(=S)N/N=C(\C)c1cccs1)C(=O)OC (centres undefined)	> 100 µM (inactive)	–	> 100 µM (inactive)	> 100 µM (inactive)	> 100 µM (inactive)	> 100 µM (inactive)	> 100 µM (inactive)	> 100 µM (inactive)	> 100 µM (inactive)	> 100 µM (inactive)	> 100 µM (inactive)	> 100 µM (inactive)	> 100 µM (inactive)	> 100 µM (inactive)	> 100 µM (inactive)	> 100 µM (inactive)	> 100 µM (inactive)
